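Assay format: 96-well plates, 48-hour exposure. GI50 marks 50% less growth.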 Active and inactive are the calls of the source. No stated cut-off is given here; in the data, active = GI50 up to about 1.1 µM and inactive = higher.
How the values were obtained:
Experiment in all cases: inhibition of tumour cell growth, NCI panel, 48 h
786-0 = tested on: 786-0
A498 = tested on: A498
DU-145 = tested on: DU-145
HL-60 = tested on: HL-60
HOP-92 = tested on: HOP-92
IGROV-1 = tested on: IGROV-1
K562 = tested on: K562
KM12 = tested on: KM12
LOX IMVI = tested on: LOX IMVI
M14 = tested on: M14
Malme-3M = tested on: Malme-3M
NCI-H23 = tested on: NCI-H23
OVCAR-3 = tested on: OVCAR-3
PC-3 = tested on: PC-3
SW-620 = tested on: SW-620
UO-31 = tested on: UO-31
MOLT-4 = tested on: MOLT-4
NCI-H226 = tested on: NCI-H226
MDA-MB-231 = tested on: MDA-MB-231

Measured: GI50

CC(C)(C)C1=C(Br)C(Br)(C(C)(C)C)OP1(=O)c1ccccc1 (configuration not stated)
inactive: 786-0 > 100 µM | A498 > 100 µM | DU-145 > 100 µM | HL-60 > 100 µM | HOP-92 > 100 µM | IGROV-1 > 100 µM | K562 > 100 µM | KM12 > 100 µM | LOX IMVI > 100 µM | M14 > 100 µM | Malme-3M > 100 µM | NCI-H23 > 100 µM | OVCAR-3 > 100 µM | PC-3 > 100 µM | SW-620 > 100 µM | UO-31 > 100 µM

CC1(Br)C(=O)NC(=O)N([C@H]2C[C@H](O)[C@@H](CO)O2)C1N=[N+]=[N-] (some centres not stated)
inactive: 786-0 > 100 µM | A498 > 100 µM | HL-60 > 100 µM | HOP-92 > 100 µM | IGROV-1 > 100 µM | K562 > 100 µM | KM12 > 100 µM | LOX IMVI > 100 µM | M14 > 100 µM | MOLT-4 > 100 µM | Malme-3M > 100 µM | NCI-H226 > 100 µM | NCI-H23 > 100 µM | OVCAR-3 > 100 µM | SW-620 > 100 µM | UO-31 > 100 µM

O=[PH](O)c1cccnc1
inactive: 786-0 > 100 µM | A498 > 100 µM | HL-60 > 100 µM | HOP-92 > 100 µM | IGROV-1 > 100 µM | K562 > 100 µM | KM12 > 100 µM | LOX IMVI > 100 µM | M14 > 100 µM | MOLT-4 > 100 µM | Malme-3M > 100 µM | NCI-H226 > 100 µM | NCI-H23 > 100 µM | OVCAR-3 > 100 µM | SW-620 > 100 µM | UO-31 > 100 µM

CN1CC[C@]2(C)c3c(O)cccc3CC3CCCC1C32C (some centres not stated)
inactive: 786-0 > 100 µM | A498 > 100 µM | HL-60 96.2 µM | HOP-92 89.7 µM | IGROV-1 > 100 µM | K562 91.6 µM | KM12 > 100 µM | LOX IMVI > 100 µM | M14 > 100 µM | MOLT-4 > 100 µM | Malme-3M > 100 µM | NCI-H226 > 100 µM | NCI-H23 > 100 µM | OVCAR-3 > 100 µM | UO-31 > 100 µM

CC1C[C@]2(C)C(=O)N(c3ccccc3)C(=N)[C@@H]2N(C)c2ccccc21 (some centres not stated)
inactive: 786-0 > 100 µM | A498 > 100 µM | DU-145 > 100 µM | HL-60 > 100 µM | IGROV-1 > 100 µM | K562 > 100 µM | KM12 > 100 µM | LOX IMVI > 100 µM | M14 > 100 µM | MDA-MB-231 > 100 µM | MOLT-4 > 100 µM | Malme-3M > 100 µM | NCI-H226 > 100 µM | NCI-H23 > 100 µM | OVCAR-3 70.1 µM | PC-3 > 100 µM | SW-620 > 100 µM | UO-31 > 100 µM

CSc1nc(NC2OC(COC(C)=O)C(OC(C)=O)C(OC(C)=O)C2OC(C)=O)c2c(OC(C)=O)c(C)c(=O)oc2n1 (configuration not stated)
inactive: 786-0 > 100 µM | A498 > 100 µM | HL-60 > 100 µM | HOP-92 > 100 µM | IGROV-1 > 100 µM | K562 > 100 µM | KM12 > 100 µM | LOX IMVI > 100 µM | M14 > 100 µM | MOLT-4 > 100 µM | Malme-3M > 100 µM | NCI-H226 > 100 µM | NCI-H23 > 100 µM | OVCAR-3 > 100 µM | SW-620 > 100 µM | UO-31 > 100 µM
